Non-standard residues stand in square brackets, D forms with d. Nle = CCCC[C@H](N)C(=O)O; Nva = CCC[C@H](N)C(=O)O
Legend:
[1] = test system: cultured rat pituitary cells; experiment: Secretion of ACTH and β-endorphin by cultured rat pituitary cells (procedure of Endocrinology, 91, 562 (1972)); format: cell-based; conditions: for stimulation of the secretion of ACTH and β-END-LI: testing by the general procedure of Example III; for EC50: stimulation of secretion of ACTH and β-endorphin, cultured rat pituitary cells, read-out: Half-maximal responses (concentration of the peptide)
Procedure: (§1) The synthetic peptide [D-Glu²⁰]-oCRF is examined for its effects on the secretion of ACTH and β-endorphin in vitro and was also in vivo. The potency of synthetic [D-Glu²⁰]-oCRF to stimulate the secretion of ACTH and β-endorphin by cultured rat pituitary cells is measured using the procedure as generally set forth in Endocrinology, 91, 562 (1972) and compared against synthetic oCRF. […] In vivo testing is carried out using the general procedure set forth in C.

[2] = In vivo testing (general procedure of C. Rivier et al., Science, 218, 377 (1982)): duration of potency and blood pressure; conditions: for lowering of blood pressure: general procedure of Example III
Procedure: as §1

Compound | stimulation of the secretion of ACTH and β-END-LI [1] | lowering of blood pressure [2] | also measured
H-SQE[dP]PISLDLT[dF]HLLRE[Nle]LE[Nle]AKAEQEAEQAAINRNLLEEA-NH2 | stimulates the secretion of ACTH and β-END-LI | very significant lowering of blood pressure | –
H-SQ[dY]PPISLDLTFHLLRE[Nle]L[dE][Nva]AK[dA]EQEAEQAALNRLLLEEA-NH2 | stimulates the secretion of ACTH and β-END-LI | very significant lowering of blood pressure | –
CC[C@H](C)[C@H](NC(=O)[C@H](CC(=O)O)NC(=O)[C@H](CC(C)C)NC(=O)[C@H](CC(C)C)NC(=O)[C@H](CCCCN)NC(=O)[C@H](CCCNC(=N)N)NC(=O)[C@H](CC(N)=O)NC(=O)[C@H](CO)NC(=O)[C@H](Cc1c[nH]cn1)NC(=O)[C@H](C)NC(=O)[C@H](CCC(N)=O)NC(=O)[C@H](CCC(N)=O)NC(=O)[C@H](C)NC(=O)[C@H](CC(C)C)NC(=O)[C@H](CCC(N)=O)NC(=O)[C@H](CC(=O)O)NC(=O)[C@H](C)NC(=O)[C@H](CCCCN)NC(=O)[C@@H](NC(=O)[C@H](CCSC)NC(=O)[C@@H](CCC(=O)O)NC(=O)[C@H](CC(C)C)NC(=O)[C@@H](NC(=O)[C@H](CCC(=O)O)NC(=O)[C@H](CCCNC(=N)N)NC(=O)[C@H](CC(C)C)NC(=O)[C@H](CC(C)C)NC(=O)[C@H](Cc1c[nH]cn1)NC(=O)[C@H](Cc1ccccc1)NC(=O)[C@@H](NC(=O)[C@H](CC(C)C)NC(=O)[C@H](CC(=O)O)NC(=O)[C@H](CC(C)C)NC(=O)[C@H](CO)NC(=O)[C@@H](NC(=O)[C@@H]1CCCN1C(=O)[C@@H]1CCCN1C(=O)[C@H](CCC(=O)O)NC(=O)[C@H](CCC(N)=O)NC(=O)[C@@H](N)CO)[C@@H](C)CC)[C@@H](C)O)C(C)C)[C@@H](C)O)C(=O)N[C@@H](C)C(N)=O [[D-Glu²⁰]-oCRF] | – | significant lowering of blood pressure | potency compared with the native hormone ([1]; in vitro, compared against synthetic oCRF / native peptides): about twice as potent as the native hormone; secretory response to maximal concentrations ([1]; maximal (1-5 nM) concentrations): at a plateau level; EC50 [1]: ~0.17 nM; duration of potency [2]: longer duration of potency
For-Ser-GlU-GlU-Pro-Pro-Ile-Ser-Leu-Asp-Leu-Thr-D-Phe-His-Leu-Leu-Arg-Glu-Val-Leu-Glu-Nle-Ala-Arg-Ala-Glu-Gln-Leu-Ala-Gln-Gln-Ala-D-His-Ser-Asn-Arg-Lys-Leu-Nle-Glu-Ile-Ile-NH₂ | stimulates the secretion of ACTH and β-END-LI | very significant lowering of blood pressure | –
H-SQEPPISLDLT[dF]HLLRE[Nle]LE[Nle]AK[dA]EQEAEQAALNRLLLEEA-NH2 [[D-Phe¹², Nle^18,21, D-Ala²⁴]-AHC] | stimulates the secretion of ACTH and β-END-LI | very significant lowering of blood pressure | –
H-SQEPPISLDLT[dF]HLLREML[dE]RAKAEQEAEQAALNRLLLEEA-NH2 [[D-Phe¹², D-Glu²⁰, Arg²¹]-AHC] | stimulates the secretion of ACTH and β-END-LI | very significant lowering of blood pressure | –
CC[C@H](C)[C@H](NC(=O)[C@H](CC(=O)O)NC(=O)[C@H](CC(C)C)NC(=O)[C@H](CC(C)C)NC(=O)[C@H](CCCCN)NC(=O)[C@H](CCCNC(=N)N)NC(=O)[C@H](CC(N)=O)NC(=O)[C@H](CO)NC(=O)[C@H](Cc1c[nH]cn1)NC(=O)[C@H](C)NC(=O)[C@H](CCC(N)=O)NC(=O)[C@H](CCC(N)=O)NC(=O)[C@H](C)NC(=O)[C@H](CC(C)C)NC(=O)[C@H](CCC(N)=O)NC(=O)[C@H](CC(=O)O)NC(=O)[C@H](C)NC(=O)[C@H](CCCCN)NC(=O)[C@@H](NC(=O)[C@H](CCSC)NC(=O)[C@H](CCC(=O)O)NC(=O)[C@H](CC(C)C)NC(=O)[C@@H](NC(=O)[C@H](CCC(=O)O)NC(=O)[C@H](CCCNC(=N)N)NC(=O)[C@H](CC(C)C)NC(=O)[C@H](CC(C)C)NC(=O)[C@H](Cc1c[nH]cn1)NC(=O)[C@H](Cc1ccccc1)NC(=O)[C@@H](NC(=O)[C@H](CC(C)C)NC(=O)[C@H](CC(=O)O)NC(=O)[C@H](CC(C)C)NC(=O)[C@H](CO)NC(=O)[C@@H](NC(=O)[C@@H]1CCCN1C(=O)[C@@H]1CCCN1C(=O)[C@H](CCC(=O)O)NC(=O)[C@H](CCC(N)=O)NC(=O)[C@@H](N)CO)[C@@H](C)CC)[C@@H](C)O)C(C)C)[C@@H](C)O)C(=O)N[C@@H](C)C(N)=O [oCRF, reference compound] | – | – | EC50 [1]: ~0.25 nM
CC[C@H](C)[C@H](NC(=O)[C@@H](NC(=O)[C@H](CC(=O)O)NC(=O)[C@H](CC(C)C)NC(=O)[C@H](CC(C)C)NC(=O)[C@H](CC(C)C)NC(=O)[C@H](CCCNC(=N)N)NC(=O)[C@H](CC(N)=O)NC(=O)[C@H](CC(N)=O)NC(=O)[C@H](C)NC(=O)[C@H](C)NC(=O)[C@H](CCC(N)=O)NC(=O)[C@H](CCC(=O)O)NC(=O)[C@H](CCCCN)NC(=O)[C@H](CCC(=O)O)NC(=O)[C@H](CCCCN)NC(=O)[C@H](CCC(=O)O)NC(=O)[C@H](CCC(N)=O)NC(=O)[C@H](CCCCN)NC(=O)[C@H](CCCNC(=N)N)NC(=O)[C@H](C)NC(=O)[C@@H](CCC(=O)O)NC(=O)[C@@H](NC(=O)[C@H](CCSC)NC(=O)[C@H](CCCCN)NC(=O)[C@H](CCCNC(=N)N)NC(=O)[C@H](CC(C)C)NC(=O)[C@H](CC(C)C)NC(=O)[C@H](CCC(=O)O)NC(=O)[C@@H](Cc1ccccc1)NC(=O)[C@H](CO)NC(=O)[C@H](CC(C)C)NC(=O)[C@H](CC(=O)O)NC(=O)[C@@H](NC(=O)[C@H](CO)NC(=O)[C@@H](NC(=O)[C@@H]1CCCN1C(=O)[C@@H]1CCCN1C(=O)CNC(=O)[C@@H]1CCC(=O)N1)[C@@H](C)CC)[C@@H](C)CC)[C@@H](C)CC)[C@@H](C)CC)C(N)=O | stimulates the secretion of ACTH and β-END-LI | very significant lowering of blood pressure | –
H-GlU-Pro-Pro-Ile-Ser-Leu-Asp-Leu-Thr-D-Phe-His-Leu-Leu-Arg-Glu-Val-Leu-D-GlU-Met-Ala-Arg-Ala-Glu-Gln-Leu-Ala-Gln-Gln-Ala-His-Ser-Asn-Arg-Lys-Leu-Met-Glu-Ile-Ile-NH₂ [[D-Phe¹², D-Glu²⁰]-rCRF(3-41)] | stimulates the secretion of ACTH and β-END-LI | very significant lowering of blood pressure | –
H-SQEPPISLDLTFHLREVL[dE][Nle]TKADQLAQQAHSNRKLLDIA-NH2 [[D-Glu²⁰, Nle²¹]-oCRF] | stimulates the secretion of ACTH and β-END-LI | very significant lowering of blood pressure | –
H-Ser-Gln-GluU-Pro-Pro-Ile-Ser-Leu-Asp-Leu-Thr-D-Phe-His-Leu-Leu-Arg-Glu-Val-Leu-Glu-Nle-Thr-Lys-Ala-Asp-Gln-Leu-Ala-Gln-Gln-Ala-His-Ser-Asn-Arg-Lys-Leu-Leu-Asp-Ile-Ala-NH₂ [[D-phe¹², Nle²¹ -oCRF] | stimulates the secretion of ACTH and β-END-LI | very significant lowering of blood pressure | –
H-SQEPPISLDLTFHLLREVL[dE][Nle]TK[dA]DQLAQQAHSNRKL[Nle]DIA-NH2 [[D-Glu²⁰, D-Ala²⁴, Nle^21,38]-oCRF] | – | very significant lowering of blood pressure | –
H-SQEPPISLDLT[dF]ELLREMLEIAKAEQEAEQAALNRKYLEEV-NH2 | stimulates the secretion of ACTH and β-END-LI | very significant lowering of blood pressure | –
Acr-Glu-Glu-Pro-Pro-Ile-Ser-Leu-Asp-Leu-Thr-D-Phe-His-Leu-Leu-Arg-Glu-Val-Leu-Glu-Nle-Ala-Arg-Ala-Glu-Gln-Leu-Ala-Gln-Gln-Ala-D-His-Ser-Asn-Arg-Lys-Leu-NIe-Glu-Ile-Ile-NH₂ | stimulates the secretion of ACTH and β-END-LI | very significant lowering of blood pressure | –
H-Ser-Glu-Glu-pro-pro-lle-Ser-Leu-Asp-Leu-Thr-D-Phe-Glu-Leu-Leu-Arg-Glu-Nle-Leu-Glu-Met-Glu-Orn-Ala-Glu-Lys-Glu-Ala-Glu-Gln-Ala-Ala-Leu-Asn-Arg-Leu-Leu-Leu-Glu-Glu-Ala-NH₂ [[Glu^2,13,22 D-Phe¹², Nle¹⁸, Orn²³]-AHC] | stimulates the secretion of ACTH and β-END-LI | very significant lowering of blood pressure | –
H-SQEPPISLDLTFHLLRE[Nle]L[dE][Nle]AKAEQEAEQA[dH]LNRLLLEEA-NH2 [[Nle^18,21, D-Glu²⁰, D-His³²]-AHC] | stimulates the secretion of ACTH and β-END-LI | very significant lowering of blood pressure | –
CCCC[C@H](NC(=O)[C@@H](CCC(=O)O)NC(=O)[C@H](CC(C)C)NC(=O)[C@@H](NC(=O)[C@H](CCC(=O)O)NC(=O)[C@H](CCCNC(=N)N)NC(=O)[C@H](CC(C)C)NC(=O)[C@H](CC(C)C)NC(=O)[C@H](Cc1c[nH]cn1)NC(=O)[C@H](Cc1ccccc1)NC(=O)[C@@H](NC(=O)[C@H](CC(C)C)NC(=O)[C@H](CC(=O)O)NC(=O)[C@H](CC(C)C)NC(=O)[C@H](CO)NC(=O)[C@@H](NC(=O)[C@@H]1CCCN1C(=O)[C@@H]1CCCN1C(=O)[C@H](CCC(=O)O)NC(=O)[C@H](CCC(N)=O)NC(=O)[C@@H](N)CO)[C@@H](C)CC)[C@@H](C)O)C(C)C)C(=O)N[C@H](C(=O)N[C@@H](CCCCN)C(=O)N[C@@H](C)C(=O)N[C@@H](CC(=O)O)C(=O)N[C@@H](CCC(N)=O)C(=O)N[C@@H](CC(C)C)C(=O)N[C@@H](C)C(=O)N[C@@H](CCC(N)=O)C(=O)N[C@@H](CCC(N)=O)C(=O)N[C@@H](C)C(=O)N[C@H](Cc1c[nH]cn1)C(=O)N[C@@H](CO)C(=O)N[C@@H](CC(N)=O)C(=O)N[C@@H](CCCNC(=N)N)C(=O)N[C@@H](CCCCN)C(=O)N[C@@H](CC(C)C)C(=O)N[C@@H](CC(C)C)C(=O)N[C@@H](CC(=O)O)C(=O)N[C@H](C(=O)N[C@@H](C)C(N)=O)[C@@H](C)CC)[C@@H](C)O [[D-Glu²⁰, Nle²¹, D-His³²]-oCRF] | – | very significant lowering of blood pressure | –
